These results are taken from patent US20130040933A1, “AZAINDOLES AS JANUS KINASE INHIBITORS” (priority 2010, published 2013).

Molecules are shown by their SMILES. pIC50: −log10 of the molar value. Where two headings read alike, the source gives them in different places.

This experiment has as its target T1, rhJAK3 (Homo sapiens, UniProt P52333).
T1 construct: recombinant purified GST-tagged catalytic domain for each enzyme; purchased Invitrogen PV3855
Kind of experiment: JAK Biochemical HTRF Assay (JAK3). The settings on record: recombinant purified GST-tagged catalytic domain, HTRF format, [ATP] 1.7 μM.

T1 sequence (P52333 822-1111 limits assumed): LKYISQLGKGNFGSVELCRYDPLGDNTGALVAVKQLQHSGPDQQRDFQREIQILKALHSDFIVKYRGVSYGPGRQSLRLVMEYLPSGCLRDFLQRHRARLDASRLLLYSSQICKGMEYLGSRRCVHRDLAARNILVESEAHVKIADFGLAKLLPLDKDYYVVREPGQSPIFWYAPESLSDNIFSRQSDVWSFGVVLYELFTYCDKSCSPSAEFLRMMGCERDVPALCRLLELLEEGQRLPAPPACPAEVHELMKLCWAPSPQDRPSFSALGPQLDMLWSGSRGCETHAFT

In general, pIC50 refers to −log10 of the IC50, conventionally taken in molar units. In the case of `C[C@H](Nc1cncc(-c2c[nH]c3ncc(Cl)cc23)n1)C(=O)NCCC(F)(F)F` [Example 2-22, N^2-[6-(5-chloro-1H-pyrrolo[2,3-b]-pyridin-3-yl)pyrazin-2-yl]-N-(3,3,3-trifluoropropyl)-L-alaninamide], for the setting “read-out: rhJAK3 IC50”, the pIC50 is 7.00 to 8.00.
Still for that read-out and setting: as for `C[C@@H](Nc1cncc(-c2c[nH]c3ncc(Cl)cc23)n1)C(=O)NCc1ccc(C(F)(F)F)cc1` [Example 2-21, N^2-[6-(5-chloro-1H-pyrrolo[2,3-b]-pyridin-3-yl)pyrazin-2-yl]-N-[4-(trifluoromethyl)benzyl]-D-alaninamide], the figure is 6.00 to 7.00.
For `COc1cncc(-c2cnc3[nH]cc(-c4cncc(N[C@H](C)C(=O)NCC(F)(F)F)n4)c3c2)c1` [Example 15-18, N^2-{6-[5-(5-methoxypyridin-3-yl)-1H-pyrrolo[2,3-b]pyridin-3-yl]pyrazin-2-yl}-N-(2,2,2-trifluoroethyl)-D-alaninamide], where the note is “read-out: JAK3 IC50”, the pIC50 is no less than 9.00.
